Test results published in PMC10391610, “Survivin prevents the polycomb repressor complex 2 from methylating histone 3 lysine 27” (iScience, 2023).

Experiments:
[1] = biological target: T1, survivin (Homo sapiens, UniProt O15392); assay: PEPperCHIP peptide microarray, survivin interaction; assay type: binding; conditions: 1 μg/mL survivin; for Average FI (%): anti-His tag DyLight680 read-out, percentage of maximum fluorescence intensity units (64193) per peptide; for Average FI (%) / Integrated FI: 15-mer microarray peptides covering the residues; for Integrated FI: in units of the maximum FI per peptide; for survivin interaction / fluorescence on microarray (in words): peptide microarray
T1 construct: transferred to the survivin1-142 construct used in the present study; His8 tag (pHIS8 vector, thrombin-cleavable); made in house; host or cells: E. coli BL21(DE3) star
T1 sequence (O15392 whole entry): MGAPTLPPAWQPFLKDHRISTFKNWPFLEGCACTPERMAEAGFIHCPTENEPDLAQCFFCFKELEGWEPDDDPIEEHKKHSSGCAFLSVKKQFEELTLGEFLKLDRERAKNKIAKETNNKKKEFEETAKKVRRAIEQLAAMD
Source text: We were looking for potential direct interactions between survivin and short peptide sequences originating from PRC2 subunits and other proteins involved in histone modifications based on the in vivo results. Therefore, we created a peptide microarray of overlapping peptides obtained from EZH2, EED, SUZ12, and JARID2 to investigate how survivin interacts with the activity of the PRC2 complex. These subunits form the core of PRC2, and the interaction of survivin with the PRC2 molecular scaffold indicates a potentially disruptive role for survivin in PRC2 function. The fluorescence signal generated by labeled survivin is compared in Figure 2 as a function of position along the polypeptide chain of PRC2 subunits. Figure S1 depicts the raw fluorescence images. Moreover, the microarray fluorescence intensities projected on the three-dimensional structure of the PRC2 core complex are shown in Figure 3. The whole dataset is deposited at the Zenodo data base.
The location of survivin on the peptide microarray was clearly correlated with the amino acid content of the peptide at 1 μg/mL survivin concentration. When evaluating how accurate the predictions were, one should keep in mind that the primary and higher-order structures of the peptide were not at all considered in this analysis. Mislabeling peptides is possible for multiple reasons. The smallest fluorescence signal was chosen as the limit of detection and photon-counting errors may cause weak interactions to be undetected at low fluorescence intensities. Moreover, if the fluorescence intensity of experimental duplicates varied by more than 40%, a peptide was classified as non-interacting even if the lack of reproducibility is ambiguous evidence for the lack of interaction. […] Reducing the number of hidden layer perceptrons from 100 (the default value) to 9 had no effect on the classifier’s performance. Even a 15 amino acid peptide segment composition gives a high degree of uniqueness and highly scalable intensity for survivin-peptide interaction. Survivin has a non-globular structure with no deep binding pockets.
A peptide microarray was designed using the protein sequences from: Cdk1 (P06493), KAT2A/GCN5 (Q92830), SPI1/PU1 (P17947), SUZ12 (Q15022), EED (O75530), JADE3 (Q92613), DIABLO/SMAC (Q9NR28), BOREALIN (Q53HL2), INCENP (Q9NQS7), SGOL1 (Q5FBB7), SGOL2 (Q562F6), EZH2 (Q15910), JARID2 (Q92833), Histone H3 (P68431), AURORAKB (Q96GD4), JADE1 (Q6IE81), JTB (O76095), EVI5 (O60447), RAN (P62826), USP9X (Q93008), C-IAP1 (Q13490), STAT3 (P40763), BRUCE/APOLLON (Q9NR09), XPO1 (O14980), CDX2 (Q99626), Msx2 (P35548), RBM15 (Q96T37), PHF21A (Q96BD5), PHF8 (Q9UPP1), DIDO (Q9BTC0), JADE2 (Q9NQC1) and HASPIN (Q8TF76). The Uniprot ID is shown in parenthesis. The protein sequences were divided into 15 amino acid long peptides with a 10 amino acid overlap. To investigate background interactions with the protein-derived peptides that could interfere with the main assays, one of the PEPperCHIP Peptide Microarrays (PEPperPRINT Gmbh) was pre-staining with the secondary 6x His Tag Antibody DyLight680 antibody at a dilution of 1:1000 and with the monoclonal anti-HA (12CA5)-DyLight800 control antibody at a dilution of 1:1000. Subsequent incubation of other peptide microarray copies with survivin at a concentration of 1 μg/ml in incubation buffer was followed by staining with the secondary 6x His Tag Antibody DyLight680 antibody (Rockland Immunochemicals, Pottstown, PA, USA) and the monoclonal anti-HA (12CA5)-DyLight800 control antibody (Rockland Immunochemicals, Pottstown, PA, USA). The read-out was performed by scanning intensities of 7/7 (red/green). As an internal quality control, HA and His tag control peptides were stained simultaneously to confirm assay quality and to facilitate grid alignment for data quantification. The LI-COR Odyssey Imaging System was used for read-out, and the PepSlide Analyzer was used for quantification of spot intensities and peptide annotation. […]

[2] = biological target: T2, [U-15N]-survivin (Homo sapiens, UniProt O15392); assay: NMR titration of [U-15N]-survivin with PRC2-derived peptides; assay type: binding; conditions: for NMR cpc (critical peptide concentration): 300 μM [U-15N]-survivin, 50 mM Tris, 150 mM NaCl, 1 mM DTT, pH 7.5, 298 K, Bayesian logistic fit (Table 3); for <L>: logistic function parameter L; for <L> / <b> / <k>: posterior mean (Table S10); for <b>: logistic function parameter b; for <k>: logistic function parameter k
T2 construct: transferred to the survivin1-142 construct used in the present study; His8 tag (pHIS8 vector, thrombin-cleavable); made in house; host or cells: E. coli BL21(DE3) star, M9 medium with 15NH4Cl
T2 sequence (O15392 whole entry): as above
Procedure: Uniformly [U] labeled [U-^15N] survivin was produced in H2O-based M9 medium[69] containing ^15NH4Cl as the sole nitrogen and in case of or [U-^15N,^13C] survivin D-(^13C)-glucose was additionally added as the sole carbon source, respectively (Sigma-Aldrich). Expression was induced with 0.5 mM IPTG and continued for 20–22 h at 15°C. Cell harvesting and subsequent purification followed the same protocol as for unlabeled survivin.
NMR measurements were performed on Bruker (Fällanden, Switzerland) AvanceIII 800 MHz spectrometers running Topspin 3.5 or 3.6, respectively, equipped with cryogenically cooled triple resonance probes. All NMR experiments were performed in NMR buffer (50 mM Tris, 150 mM NaCl, 1 mM DTT, pH 7.5) and at 298 K. The sequence-specific backbone assignment of survivin1-117 was taken from previously published assignment,[50] and transferred to the survivin1-142 construct used in the present study. Existing resonance assignments were confirmed, and additional resonances were assigned in a sequence-specific manner by the following experiments: [^1H,^15N]-TROSY HSQC,[70] BEST-TROSY-type HNCA and HNCO experiments.[71]
The peptides were synthetized and purified to 95% by Biomatik. The peptides were titrated into ^15N labelled survivin (0.3 mM). Standard 2D [^15N,^1H]-SOFAST-HMQC[72] experiments were recorded with inter-scan delays of 200 ms and 1025 x 256 complex points for the ^1H and ^15N dimensions, respectively, for the titrations of the different peptides with [U-^15N] survivin.
For the global analysis, the NMR signal strength was quantified by summing the 200 highest values in each 2D NMR spectrum to ensure that all peaks corresponding to the different amino acid residues in survivin are potentially covered. The titration curve was modelled using a Bayesian machine learning approach using the python library pymc3.[66] The logistic function was chosen due to computational convenience. The most important parameter of this function was coined “critical peptide concentration (cpc)” and its logarithm was modelled using a uniform a priori distribution between −10 and 1. p(log10cpc|lower=−10,upper=1)=1/upper−lower
The modelling errors related to the choice of function affect the analysis of different peptides similarly. Therefore, the relative magnitude of cpc in comparison is more reliable than the absolute magnitude of cpc itself. The concentration values were converted to dimensionless quantities by dividing with 1 mM and the NMR signal intensity was normalized for the concentration range studied.
A deterministic sigmoid (logistic) function was used to model signal decay as a function of peptide concentration. Additional a priori assumptions of the function parameters were the following: p(k|lower=−10,upper=10)=1/upper−lower p(L|lower=−3,upper=3)=1/upper−lower p(b|lower=−10,upper=10)=1/upper−lower
1000 posterior samples were collected in four parallel chains using the No-U-Turn sampling algorithm (NUTS) after 2000 tuning steps/chain.[83] The default sampling parameters were used except for “target accept” parameter, which was increased to 0.95. For the final analysis the 1000 samples from the four chains were merged to yield 4000 samples.

For “PLRPQEMEVDSEDEKDPEWLREKTI [SUZ12_573-597, PRC2-derived peptide, SUZ12 residues 573–597, synthesized by Biomatik]”, the “Average FI (%)” value [1] was 20%, the “Integrated FI” value [1] was 0.6 and the “survivin interaction / fluorescence on microarray (in words)” value (“survivin interaction / fluorescence” for short) [1] was “high survivin-associated fluorescence intensity”. The “NMR cpc (critical peptide concentration)” value [2] was 0.0066 µM, the “<L>” value [2] was -0.59 and the “<b>” value [2] was 0.87. For the same sequence, the “<k>” value [2] was 0.99.
For “SQGEIRLLQSYVDADADENFYTCAW [EED128-152, PRC2-derived peptide, EED residues 128–152, synthesized by Biomatik]”, the “Average FI (%)” value [1] was 10%, the “Integrated FI” value [1] was 0.31 and the “survivin interaction / fluorescence” value [1] was “high survivin-associated fluorescence intensity”. The “NMR cpc (critical peptide concentration)” value [2] was 0.0076 µM, the “<L>” value [2] was -0.00 and the “<b>” value [2] was 0.51. The “<k>” value [2] was -0.01.
“PNSMVYFGSSQDEEEVEEEDDETED [JARID2_170-194, PRC2-derived peptide, JARID2 residues 170–194, synthesized by Biomatik]” was tested, and the “Average FI (%)” value [1] was 100%, the “Integrated FI” value [1] was 3.00 and the “survivin interaction / fluorescence” value [1] was “high survivin-associated fluorescence intensity”. For the same sequence, the “NMR cpc (critical peptide concentration)” value [2] was 0.0085 µM, the “<L>” value [2] was -0.53 and the “<b>” value [2] was 0.79. For the same sequence, the “<k>” value [2] was 1.25.
